Measured values reported in PMC9227119, “Hydroxybenzoic Acids as Acetylcholinesterase Inhibitors: Calorimetric and Docking Simulation Studies” (Nutrients, 2022).
Converted amounts (≈) assume the structure as drawn. “And” between values parts separate entries of the source, which are not always exact repeats. Equal values may be shown once. Read-outs that look alike come from different tables or passages of the source.

How the values were obtained:
[1] = biological target: T1, Acetylcholinesterase from Electrophorus electricus (electric eel) (AChE) (Electrophorus electricus, UniProt O42275); format: biochemical; settings: 36.6 °C; for % Inhibition (inhibitory activity, ITC): AChE 1 μmol/L in cell, syringe hydroxybenzoic acid 0.5 mmol/L and ACh 1 mmol/L, mean ± SD of three; for IC50 (ITC): ligand amount per AChE monomer that inhibits ACh hydrolysis by 50%
[2] = biological target: T1, Acetylcholinesterase from Electrophorus electricus (electric eel) (AChE); test: ITC: titration of AChE with ligand, complexation (association) constant; format: binding; settings: for Ka × 10^3 (binding/association constant, ITC): 36.6 °C, one binding site model; for Ka (association constant, ITC): restated in L/mol
[3] = tested on: AChE; settings: colorimetric method; cited from earlier work
[4] = tested on: AChE; settings: inhibitory activity for AChE; cited from earlier work
[5] = tested on: AChE; set-up: method as in PMID 18274286; settings: AChE inhibition; cited from earlier work
[6] = tested on: AChE; set-up: method as in PMID 23229229; settings: AChE inhibition; cited from earlier work
[7] = tested on: AChE; settings: anti-AChE activity; cited from earlier work
[8] = tested on: AChE; settings: AChE inhibition; literature result, no reference given; cited from earlier work
[9] = tested on: AChE; settings: mice administered with streptozotocin; dose-dependent; cited from earlier work

T1 sequence (O42275 24-633): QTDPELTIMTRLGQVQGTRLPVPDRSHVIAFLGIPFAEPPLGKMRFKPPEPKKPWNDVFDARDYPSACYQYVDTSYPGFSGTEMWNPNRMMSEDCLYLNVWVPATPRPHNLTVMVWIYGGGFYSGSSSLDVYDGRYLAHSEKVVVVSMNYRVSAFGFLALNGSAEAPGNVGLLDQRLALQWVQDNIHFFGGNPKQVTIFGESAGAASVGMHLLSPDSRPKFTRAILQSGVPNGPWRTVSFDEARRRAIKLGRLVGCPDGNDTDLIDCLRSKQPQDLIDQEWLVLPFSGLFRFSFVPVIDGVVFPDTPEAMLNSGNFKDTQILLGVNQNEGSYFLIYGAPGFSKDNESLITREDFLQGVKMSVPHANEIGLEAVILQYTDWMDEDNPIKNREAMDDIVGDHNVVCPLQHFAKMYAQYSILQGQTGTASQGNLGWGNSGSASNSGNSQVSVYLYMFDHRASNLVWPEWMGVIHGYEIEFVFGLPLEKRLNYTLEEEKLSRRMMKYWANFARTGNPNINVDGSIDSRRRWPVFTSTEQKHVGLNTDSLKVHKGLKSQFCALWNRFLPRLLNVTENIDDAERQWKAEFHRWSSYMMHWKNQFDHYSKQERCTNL

CCOC(=O)c1ccc(O)c(OC)c1 [ethyl vanillate]
% Inhibition (inhibitory activity, ITC) [1]: 14.60 ± 2.33%
IC50 (ITC) [1]: 34.19 μmol/μmol AChE and 34.19 ± 5.46 μmol/μmol AChE
Kd [2]: 25.8 µM
Ka × 10^3 (binding/association constant, ITC) [2]: 38.76 × 10^3 L/mol
Ellman’s Assay (inhibitory activity as eserine equivalent) [3]: 33.5 ± 2.5 nmol/L of Eserine

O=C(O)C(=O)Cc1ccc(O)cc1 [4-hydroxyphenylpyruvic acid]
% Inhibition (inhibitory activity, ITC) [1]: 84.93 ± 5.82%
IC50 (ITC) [1]: 5.89 μmol/μmol AChE and 5.89 ± 0.40 μmol/μmol AChE
Kd [2]: 3.95 µM
Ka × 10^3 (binding/association constant, ITC) [2]: 253 × 10^3 L/mol
Ka (association constant, ITC) [2]: 253000 L/mol
Ellman’s Assay (inhibitory activity as eserine equivalent) [3]: 23.6 ± 1.5 nmol/L of Eserine

O=C(O)c1ccc(O)c(O)c1 [protocatechuic acid]
% Inhibition (inhibitory activity, ITC) [1]: 77.15 ± 5.16%
IC50 (ITC) [1]: 6.50 ± 0.43 μmol/μmol AChE
IC50 (ITC) ([1]; listed as Protocatechic acid): 6.50 μmol/μmol AChE
Kd [2]: 17.4 µM
Ka × 10^3 (binding/association constant, ITC) [2]: 57.63 × 10^3 L/mol

CCOC(=O)c1ccc(O)cc1 [ethyl 4-hydroxybenzoate]
% Inhibition (inhibitory activity, ITC) [1]: 15.93 ± 0.75%
IC50 (ITC) [1]: 31.38 ± 1.48 μmol/μmol AChE
IC50 (ITC) ([1]; listed as ethylhydroxybenzoate): 31.38 μmol/μmol AChE
Kd [2]: 48.7 µM
Ka × 10^3 (binding/association constant, ITC) [2]: 20.53 × 10^3 L/mol
Ellman’s Assay (inhibitory activity as eserine equivalent) [3]: 28.1 ± 0.1 nmol/L of Eserine

COc1cc(CC(=O)O)ccc1O [homovanillic acid]
% Inhibition (inhibitory activity, ITC) [1]: 77.50 ± 2.59%
IC50 (ITC) [1]: 6.45 μmol/μmol AChE and 6.45 ± 0.22 μmol/μmol AChE
Kd [2]: 7.35 µM
Ka × 10^3 (binding/association constant, ITC) [2]: 136.05 × 10^3 L/mol
Ellman’s Assay (inhibitory activity as eserine equivalent) [3]: 21.8 ± 0.4 nmol/L of Eserine

O=C(O)c1cc(O)c(O)c(O)c1 [gallic acid]
% Inhibition (inhibitory activity, ITC) [1]: 53.70 ± 2.86%
IC50 (ITC) [1]: 9.32 μmol/μmol AChE and 9.32 ± 0.50 μmol/μmol AChE
Kd [2]: 19.4 µM
Ka × 10^3 (binding/association constant, ITC) [2]: 51.55 × 10^3 L/mol
Ellman’s Assay (inhibitory activity as eserine equivalent) [3]: 3.8 ± 0.1 nmol/L of Eserine
IC50 [5]: 5.89 µM

O=C(O)c1cc(O)ccc1O [gentisic acid]
% Inhibition (inhibitory activity, ITC) [1]: 62.38 ± 6.39%
IC50 (ITC) [1]: 8.02 μmol/μmol AChE and 8.02 ± 0.82 μmol/μmol AChE
Kd [2]: 13 µM
Ka × 10^3 (binding/association constant, ITC) [2]: 76.92 × 10^3 L/mol
Ellman’s Assay (inhibitory activity as eserine equivalent) [3]: 68.6 ± 0.7 nmol/L of Eserine

O=C(O)c1cccc(O)c1 [3-hydroxybenzoic acid]
% Inhibition (inhibitory activity, ITC) [1]: 74.80 ± 8.63%
IC50 (ITC) [1]: 6.68 μmol/μmol AChE and 6.68 ± 0.77 μmol/μmol AChE
Kd [2]: 15.6 µM
Ka × 10^3 (binding/association constant, ITC) [2]: 64.10 × 10^3 L/mol
Ellman’s Assay (inhibitory activity as eserine equivalent) [3]: 2.6 ± 0.1 nmol/L of Eserine

O=C(O)c1ccccc1O [salicylic acid]
% Inhibition (inhibitory activity, ITC) [1]: 82.30 ± 4.77%
IC50 (ITC) [1]: 6.07 ± 0.35 μmol/μmol AChE
IC50 (ITC) ([1]; listed as Salicylic acid): 6.07 μmol/μmol AChE
Kd [2]: 19.4 µM
Ka × 10^3 (binding/association constant, ITC) [2]: 51.55 × 10^3 L/mol
Ellman’s Assay (inhibitory activity as eserine equivalent) [3]: 11.8 ± 0.4 nmol/L of Eserine

O=C(O)c1ccc(O)cc1 [4-hydroxybenzoic acid]
Ellman’s Assay (inhibitory activity as eserine equivalent) [3]: 3.7 ± 0.3 nmol/L of Eserine

C[C@H](Cc1ccc(O)c(O)c1)[C@@H](C)Cc1ccc(O)c(O)c1 [nordihydroguaiaretic acid]
% Inhibition (inhibitory activity, ITC) [1]: 77.20 ± 4.84%
IC50 (ITC) [1]: 6.47 μmol/μmol AChE and 6.47 ± 0.41 μmol/μmol AChE
Kd [2]: 17.3 µM
Ka × 10^3 (binding/association constant, ITC) [2]: 57.80 × 10^3 L/mol
Ellman’s Assay (inhibitory activity as eserine equivalent) [3]: 37.3 ± 1.2 nmol/L of Eserine
IC50 [6]: 46.2 µM

COC(=O)c1cc(OC)c(O)c(OC)c1 [methyl syringate]
% Inhibition (inhibitory activity, ITC) [1]: 90.93 ± 7.13%
IC50 (ITC) [1]: 5.50 μmol/μmol AChE and 5.50 ± 0.43 μmol/μmol AChE
Kd [2]: 6.48 µM
Ka × 10^3 (binding/association constant, ITC) [2]: 154.32 × 10^3 L/mol
Ka (association constant, ITC) [2]: 154000 L/mol
Ellman’s Assay (inhibitory activity as eserine equivalent) [3]: 9.1 ±1.6 nmol/L of Eserine

O=C(O)Cc1cc(O)ccc1O [homogentisic acid]
% Inhibition (inhibitory activity, ITC) [1]: 68.78 ± 0.88%
IC50 (ITC) [1]: 7.16 μmol/μmol AChE and 7.16 ± 0.09 μmol/μmol AChE
Kd [2]: 8.55 µM
Ka × 10^3 (binding/association constant, ITC) [2]: 116.92 × 10^3 L/mol
Ellman’s Assay (inhibitory activity as eserine equivalent) [3]: 9.6 ± 2.4 nmol/L of Eserine

COc1cc(C(=O)O)cc(OC)c1O [syringic acid]
% Inhibition (inhibitory activity, ITC) [1]: 71.80 ± 3.12%
IC50 (ITC) [1]: 6.96 ± 0.30 μmol/μmol AChE
IC50 (ITC) ([1]; listed as Syringic acid): 6.96 μmol/μmol AChE
Kd [2]: 5.46 µM
Ka × 10^3 (binding/association constant, ITC) [2]: 183.15 × 10^3 L/mol
Ka (association constant, ITC) [2]: 180000 L/mol
Ellman’s Assay (inhibitory activity as eserine equivalent) [3]: 5.4 ± 0.1 nmol/L of Eserine
IC50 [7]: 18.73 µg/mL (≈ 94.5 µM)

COc1cc(C=O)ccc1O [vanillin]
IC50 [8]: 37 µM

O=C(O)Cc1ccc(O)cc1 [4-hydroxyphenylacetic acid]
% Inhibition (inhibitory activity, ITC) [1]: 80.20 ± 8.04%
IC50 (ITC) [1]: 6.24 μmol/μmol AChE and 6.24 ± 0.63 μmol/μmol AChE
Kd [2]: 15.1 µM
Ka × 10^3 (binding/association constant, ITC) [2]: 66.23 × 10^3 L/mol

COc1cc(C(=O)O)ccc1O [vanillic acid]
% Inhibition (inhibitory activity, ITC) [1]: 73.70 ± 1.90%
IC50 (ITC) [1]: 6.79 μmol/μmol AChE and 6.79 ± 0.18 μmol/μmol AChE
Kd [2]: 19.1 µM
Ka × 10^3 (binding/association constant, ITC) [2]: 52.36 × 10^3 L/mol
Ellman’s Assay (inhibitory activity as eserine equivalent) [3]: 3.2 ± 0.0 nmol/L of Eserine
AChE activity in mice [9]: reduced
